Structures can show the parent of a compound that is named as a salt.
Legend:
[1] = biological target: T1, Human Serotonin Transporter (hSERT) (Homo sapiens, UniProt P31645); test: Human Serotonin Transporter (hSERT) Scintillation Proximity Assay (SPA), competition with [3H]-Citalopram; format: binding; settings: membranes of HEK-293 cells expressing recombinant hSERT, Ki by Cheng-Prusoff; for Ki: read-out: pKi SERT (converted)
T1 construct: expressed in transfected cells; membranes prepared from them
T1 sequence (P31645 whole entry): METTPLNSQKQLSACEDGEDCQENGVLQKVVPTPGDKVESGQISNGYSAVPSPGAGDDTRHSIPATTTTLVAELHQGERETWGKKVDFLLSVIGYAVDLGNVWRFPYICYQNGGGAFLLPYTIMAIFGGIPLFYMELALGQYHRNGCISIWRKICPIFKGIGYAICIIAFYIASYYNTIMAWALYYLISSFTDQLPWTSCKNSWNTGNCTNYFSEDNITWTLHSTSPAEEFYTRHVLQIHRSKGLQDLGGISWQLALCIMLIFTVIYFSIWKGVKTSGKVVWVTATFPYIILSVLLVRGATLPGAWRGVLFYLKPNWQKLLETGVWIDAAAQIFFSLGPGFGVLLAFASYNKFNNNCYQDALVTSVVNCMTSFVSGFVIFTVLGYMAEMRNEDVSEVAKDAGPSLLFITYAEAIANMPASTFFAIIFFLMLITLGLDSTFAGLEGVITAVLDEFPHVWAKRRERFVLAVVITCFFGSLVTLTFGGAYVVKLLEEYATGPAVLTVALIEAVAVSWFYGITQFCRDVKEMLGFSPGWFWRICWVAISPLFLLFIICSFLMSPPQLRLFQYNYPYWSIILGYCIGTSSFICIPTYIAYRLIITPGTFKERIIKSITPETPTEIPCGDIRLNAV
Description: Screening for Human Serotonin Transporter (hSERT) Antagonists Using a Scintillation Proximity Assay (SPA)
Scintillation Proximity Assay (SPA) works by bringing radioligand within close proximity to the bead's scintillant to stimulate light emission. […] Unbound radioligand produced no signal as a result of distant proximity to scintillant (lack of energy transfer).

[2] = biological target: Human Norepinephrine Transporter (hNET) (Homo sapiens, UniProt P23975); test: Human Norepinephrine Transporter (hNET) Scintillation Proximity Assay (SPA), competition with [3H]-Nisoxetine; settings: membranes of HEK-293 cells expressing recombinant hNET, Ki by Cheng-Prusoff; for Ki: pKi NET
Human Norepinephrine Transporter (hNET), sequence (P23975 whole entry): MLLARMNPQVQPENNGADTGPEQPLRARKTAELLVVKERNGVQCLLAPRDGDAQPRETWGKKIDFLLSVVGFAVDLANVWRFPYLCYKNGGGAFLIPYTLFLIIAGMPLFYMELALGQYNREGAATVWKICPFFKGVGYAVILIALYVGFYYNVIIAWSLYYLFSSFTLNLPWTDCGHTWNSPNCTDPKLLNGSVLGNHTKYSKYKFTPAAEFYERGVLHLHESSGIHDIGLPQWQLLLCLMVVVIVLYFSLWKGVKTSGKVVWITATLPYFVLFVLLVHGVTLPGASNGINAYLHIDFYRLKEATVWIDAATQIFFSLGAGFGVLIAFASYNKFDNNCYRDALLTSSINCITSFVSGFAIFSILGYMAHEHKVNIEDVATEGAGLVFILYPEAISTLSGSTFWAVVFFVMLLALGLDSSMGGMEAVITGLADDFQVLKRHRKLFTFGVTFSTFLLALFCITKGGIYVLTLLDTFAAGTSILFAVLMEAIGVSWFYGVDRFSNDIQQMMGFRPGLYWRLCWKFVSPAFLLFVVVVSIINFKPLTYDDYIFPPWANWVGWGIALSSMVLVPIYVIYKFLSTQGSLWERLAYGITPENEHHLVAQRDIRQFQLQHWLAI

For “3-[1-(7-Fluoro-1H-indol-5-yl)-3-methylamino-propyl]-benzonitrile [Compound 110]”, the “pKi SERT” value [1] was 7.59 and the “pKi NET” value [2] was 7.95.
With “4-Methoxy-5-(3-methylamino-1-phenyl-propyl)-1H-indole-3-carbonitrile [Compound 89]” the “pKi SERT” value [1] was 9.07 and the “pKi NET” value [2] was 6.05.
In the case of “5-(3-Amino-1-phenyl-propyl)-1H-indole-3-carbonitrile [Compound 70]”, the “pKi SERT” value [1] is reported as 8.74 and the “pKi NET” value [2] is reported as 6.39.
“5-(3-Methylamino-1-phenyl-propyl)-1H-indole-3-carbonitrile [Compound 10]” was tested, and the “pKi SERT” value [1] was 9.42 and the “pKi NET” value [2] was 7.03.
“5-(3-Methylamino-1-phenyl-propyl)-1H-indole-3-carboxylic acid methylamide [Compound 129]” was tested, and the “pKi SERT” value [1] was 7.18 and the “pKi NET” value [2] was 7.72.
“5-[1-(1H-Indol-5-yl)-3-methylamino-propyl]-1H-indole-3-carbonitrile [Compound 122]” was tested, and the “pKi SERT” value [1] was 9.24 and the “pKi NET” value [2] was 7.7.
For “7-Chloro-5-(3-methylamino-1-phenyl-propyl)-1H-indole-2-carboxylic acid amide [Compound 105]”, the “pKi SERT” value [1] was 7.31 and the “pKi NET” value [2] was 8.35.
“7-Fluoro-5-(3-methylamino-1-(S)-phenyl-propyl)-1H-indole-3-carbonitrile [Compound 104]” was tested, and the “pKi SERT” value [1] was 8.1 and the “pKi NET” value [2] was 7.49.
With `CNCCC(c1ccccc1)c1ccc2[nH]c(C)cc2c1` (stereo not drawn) [Compound 7, Methyl-[3-(2-methyl-1H-indol-5-yl)-3-phenyl-propyl]-amine] the Ki [1] was 11 nM and the Ki [2] was 91.2 nM.
Compound `CNCCC(c1ccccc1)c1ccc2ccn(C)c2c1` (stereo not drawn) [Compound 9, Methyl-[3-(1-methyl-1H-indol-6-yl)-3-phenyl-propyl]-amine] has a Ki [1] of 9.55 nM and a Ki [2] of 74.1 nM.
For `CNCCC(c1ccccc1)c1cc(F)c2[nH]ccc2c1` (stereo not drawn) [Compound 13], the “pKi SERT” value [1] was 7.4 and the “pKi NET” value [2] was 8.2.
Compound `CNCCC(c1ccccc1)c1ccc2[nH]cc(C)c2c1` (stereo not drawn) [Compound 15, Methyl-[3-(3-methyl-1H-indol-5-yl)-3-phenyl-propyl]-amine] has a Ki [1] of 5.25 nM and a Ki [2] of 40.7 nM.
`CNCCC(c1ccccc1)c1ccc2[nH]cc(S(C)(=O)=O)c2c1` (stereo not drawn) [Compound 16] was tested, and the Ki [1] was 151 nM and the Ki [2] was 724 nM.
`CNCCC(c1ccccc1)c1cc(F)c2[nH]cc(C#N)c2c1` (stereo not drawn) [Compound 19] gave a Ki [1] of 2.14 nM and a Ki [2] of 56.2 nM.
With `CNCCC(c1ccccc1)c1ccc2[nH]c(C(N)=O)cc2c1` (stereo not drawn) [Compound 24, 5-(3-Methylamino-1-phenyl-propyl)-1H-indole-2-carboxylic acid amide] the Ki [1] was 70.8 nM and the Ki [2] was 2.88 nM.
`CNCCC(c1ccccc1)c1ccc2c(C#N)c[nH]c2c1` (stereo not drawn) [Compound 28, 6-(3-Methylamino-1-phenyl-propyl)-1H-indole-3-carbonitrile] was tested, and the “pKi SERT” value [1] was 9.72 and the “pKi NET” value [2] was 6.89.
For `CNCCC(c1ccccc1)c1cc(OC)c2cc[nH]c2c1` (stereo not drawn) [Compound 30], the “pKi SERT” value [1] was 9.06 and the “pKi NET” value [2] was 7.63.
With `CNCCC(c1ccccc1)c1ccc2[nH]ccc2c1` (stereo not drawn) [Compound 42, [3-(1H-Indol-5-yl)-3-phenyl-propyl]-methyl-amine] the Ki [1] was 32.4 nM and the “pKi NET” value [2] was 8.0.
`CNCCC(c1ccccc1)c1ccc2[nH]ncc2c1` (stereo not drawn) [Compound 51, [3-(1H-Indazol-5-yl)-3-phenyl-propyl]-methyl-amine hydrochloride] gave a Ki [1] of 15.8 nM and a Ki [2] of 34.7 nM.
`CNCCC(c1ccccc1)c1ccc2[nH]nc(C)c2c1` (stereo not drawn) [Compound 58, Methyl-[3-(3-methyl-1H-indazol-5-yl)-3-phenyl-propyl]-amine] showed a Ki [1] of 42.7 nM and a Ki [2] of 191 nM.
For `CNCC[C@@H](c1ccccc1)c1ccc2[nH]nc(Cl)c2c1` [Compound 60, [(S)-3-(3-Chloro-1H-indazol-5-yl)-3-phenyl-propyl]-methyl-amine], the Ki [1] was 8.51 nM and the Ki [2] was 40.7 nM.
Work on `CNCC[C@H](c1ccccc1)c1ccc2[nH]nc(Cl)c2c1` [Compound 61, [(R)-3-(3-Chloro-1H-indazol-5-yl)-3-phenyl-propyl]-methyl-amine trifluoracetate] yielded a Ki [1] of 3.39 nM and a Ki [2] of 123 nM.
Work on `CNCCC(c1ccccc1)c1cc(OC)c2[nH]ncc2c1` (stereo not drawn) [Compound 75, [3-(7-Methoxy-1H-indazol-5-yl)-3-phenyl-propyl]-methyl-amine] yielded a Ki [1] of 5.62 nM and a Ki [2] of 6.61 nM.
In the case of `CNCCC(c1ccccc1)c1cc(C)c2[nH]ncc2c1` (stereo not drawn) [Compound 76, Methyl-[3-(7-methyl-1H-indazol-5-yl)-3-phenyl-propyl]-amine], the Ki [1] is reported as 17.4 nM and the Ki [2] is reported as 25.7 nM.
In the case of `CNCCC(c1ccccc1)c1cc(Cl)c2[nH]ncc2c1` (stereo not drawn) [Compound 77, [3-(7-Chloro-1H-indazol-5-yl)-3-phenyl-propyl]-methyl-amine], the Ki [1] is reported as 9.12 nM and the Ki [2] is reported as 5.5 nM.
With `CNCC[C@H](c1ccccc1)c1cc(C)c2[nH]ncc2c1` [Compound 78, Methyl-[3-(7-methyl-1H-indazol-5-yl)-3-(R)-phenyl-propyl]-amine] the Ki [1] was 10 nM and the Ki [2] was 19.5 nM.
`CCOc1n[nH]c2ccc(C(CCNC)c3ccccc3)cc12` (stereo not drawn) [Compound 79, [3-(3-Ethoxy-1H-indazol-5-yl)-3-phenyl-propyl]-methyl-amine] showed a Ki [1] of 26.9 nM and a Ki [2] of 132 nM.
Work on `CNCCC(c1ccccc1)c1ccc2[nH]nc(OC(C)C)c2c1` (stereo not drawn) [Compound 80, [3-(3-Isopropoxy-1H-indazol-5-yl)-3-phenyl-propyl]-methyl-amine] yielded a Ki [1] of 33.1 nM and a Ki [2] of 148 nM.
`CNCCC(c1ccccc1)c1ccc2[nH]nc(OCC3CC3)c2c1` (stereo not drawn) [Compound 81, [3-(3-Cyclopropylmethoxy-1H-indazol-5-yl)-3-phenyl-propyl]-methyl-amine] was tested, and the Ki [1] was 56.2 nM and the Ki [2] was 214 nM.
With `CNCC[C@@H](c1ccccc1)c1cc(OC)c2[nH]ncc2c1` [Compound 82, [3-(7-Methoxy-1H-indazol-5-yl)-3-(S)-phenyl-propyl]-methyl-amine] the Ki [1] was 3.72 nM and the Ki [2] was 2.63 nM.
`CNCC[C@H](c1ccccc1)c1cc(OC)c2[nH]ncc2c1` [Compound 83, [3-(7-Methoxy-1H-indazol-5-yl)-3-(R)-phenyl-propyl]-methyl-amine] showed a Ki [1] of 11.5 nM and a Ki [2] of 53.7 nM.
`CNCC[C@H](c1ccccc1)c1cc(Cl)c2[nH]ncc2c1` [Compound 84, [3-(7-Chloro-1H-indazol-5-yl)-3-(R)-phenyl-propyl]-methyl-amine] was tested, and the Ki [1] was 5.89 nM and the Ki [2] was 7.76 nM.
`CNCCC(c1ccccc1)c1cc(C(F)(F)F)c2[nH]ncc2c1` (stereo not drawn) [Compound 85, Methyl-[3-phenyl-3-(7-trifluoromethyl-1H-indazol-5-yl)-propyl]-amine] showed a Ki [1] of 21.4 nM and a Ki [2] of 15.1 nM.
Compound `CNCCC(c1ccccc1)c1ccc2[nH]cc(S(=O)(=O)N(C)C)c2c1` (stereo not drawn) [Compound 90, 5-(3-Methylamino-1-phenyl-propyl)-1H-indole-3-sulfonic acid dimethylamide] has a Ki [1] of 38 nM and a Ki [2] of 240 nM.
Work on `CNCCC(c1ccccc1)c1ccc2[nH]cc(C(N)=O)c2c1` (stereo not drawn) [Compound 91, 5-(3-Methylamino-1-phenyl-propyl)-1H-indole-3-carboxylic acid amide] yielded a Ki [1] of 33.9 nM and a Ki [2] of 603 nM.
For `CNCCC(c1ccccc1)c1ccc2[nH]cc(C(=O)N(C)C)c2c1` (stereo not drawn) [Compound 92, 5-(3-Methylamino-1-phenyl-propyl)-1H-indole-3-carboxylic acid dimethylamide], the Ki [1] was 35.5 nM and the Ki [2] was 316 nM.
For `CNCCC(c1ccccc1)c1cc(OC)c2[nH]cc(C#N)c2c1` (stereo not drawn) [Compound 96, 7-Methoxy-5-(3-methylamino-1-phenyl-propyl)-1H-indole-3-carbonitrile], the Ki [1] was 85.1 nM and the Ki [2] was 97.7 nM.
For `CNCCC(c1ccccc1)c1ccc2[nH]ccc2c1F` (stereo not drawn) [Compound 97, [3-(4-Fluoro-1H-indol-5-yl)-3-phenyl-propyl]-methyl-amine], the Ki [1] was 9.33 nM and the Ki [2] was 17 nM.
Work on `CNCC[C@H](c1ccccc1)c1cc(F)c2[nH]cc(C#N)c2c1` [Compound 99, 7-Fluoro-5-(3-methylamino-1-(R)-phenyl-propyl)-1H-indole-3-carbonitrile] yielded a Ki [1] of 0.661 nM and a Ki [2] of 145 nM.
For `CNCCC(c1ccccc1)c1cc2cc[nH]c2cc1F` (stereo not drawn) [Compound 102, [3-(6-Fluoro-1H-indol-5-yl)-3-phenyl-propyl]-methyl-amine], the Ki [1] was 77.6 nM and the Ki [2] was 28.8 nM.
`NCCC(c1ccccc1)c1cc(Cl)c2[nH]c(C(N)=O)cc2c1` (stereo not drawn) [Compound 103, 5-(3-Amino-1-phenyl-propyl)-7-chloro-1H-indole-2-carboxylic acid amide] showed a Ki [1] of 145 nM and a Ki [2] of 4.37 nM.
In the case of `CNCCC(c1cccc(F)c1)c1cc(Cl)c2[nH]ccc2c1` (stereo not drawn) [Compound 108], the Ki [1] is reported as 12.9 nM and the Ki [2] is reported as 2.88 nM.
In the case of `CN(C)CCC(c1ccccc1)c1ccc2[nH]ccc2c1` (stereo not drawn) [Compound 113, [3-(1H-Indol-5-yl)-3-phenyl-propyl]-dimethyl-amine], the Ki [1] is reported as 178 nM and the Ki [2] is reported as 83.2 nM.
For `CNCCC(c1ccc2c(c1)OCCN2C)c1ccc2[nH]ccc2c1` (stereo not drawn) [Compound 114, [3-(1H-Indol-5-yl)-3-(4-methyl-3,4-dihydro-2H-benzo[1,4]oxazin-7-yl)-propyl]-methyl-amine], the Ki [1] was 77.6 nM and the Ki [2] was 87.1 nM.
With `CNCCC(c1ccc2[nH]ccc2c1)c1cccc2ccccc12` (stereo not drawn) [Compound 115, [3-(1H-Indol-5-yl)-3-naphthalen-1-yl-propyl]-methyl-amine] the Ki [1] was 8.13 nM and the Ki [2] was 43.7 nM.
`CNCCC(c1ccc2[nH]ccc2c1)c1ccc2sccc2c1` (stereo not drawn) [Compound 116, [3-Benzo[b]thiophen-5-yl-3-(1H-indol-5-yl)-propyl]-methyl-amine] showed a Ki [1] of 1.74 nM and a Ki [2] of 5.01 nM.
In the case of `CNCCC(c1ccc2[nH]ccc2c1)c1nccs1` (stereo not drawn) [Compound 139, [3-(1H-Indol-5-yl)-3-thiazol-2-yl-propyl]-methyl-amine], the Ki [2] is reported as 74.1 nM.
